The values below come from US20240246979A1, “cGAS INHIBITORS” (Eli Lilly and Company, priority 2022, published 2024).

In general, IC50 refers to the concentration needed to halve the response being measured.

The target of test [1] is T1, cGAS (Homo sapiens, UniProt Q8N884). The test is described as follows: Cellular assay to measure cGAS activity (IFNb AlphaLISA in THP1 cells stimulated by RDG-Adenovirus-GFP). Particulars: PMA-differentiated THP1 cells, RDG-Adenovirus-GFP at 1000 MOI; inhibition of IFNb production as marker for cGAS activity. Details: host or cells: THP1 cells differentiated with PMA and stimulated with RDG-Adenovirus-GFP. The test is classed as cell-based. In outline:
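PMA-differentiated THP1 cells were infected with RDG-Adenovirus-GFP at 1000 MOI for 4 h, then exposed overnight to test compounds. IFNb in the supernatant was quantified by AlphaLISA as a cGAS activity marker, and IC50 was fitted with a 4-parameter logistic equation.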
On the technique in general: Bead proximity is the source of the signal in Alpha formats.

In test [2] the target is T1, cGAS. Description: In vitro inhibition assay of cGAS activity (cGAMP production, RapidFire mass spectrometry). The test is classed as biochemical. Details: Insert cDNA encoding full-length of human cGAS; His6; made in house; host or cells: E. coli BL21(DE3). Particulars: 10 nM recombinant human cGAS, 60 nM 75-bp dsDNA, 50 μM ATP, 50 μM GTP, 3 hrs. In outline: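 His6-tagged full-length human cGAS (10 nM, E. coli-expressed) was incubated for 3 hrs at ambient temperature with 60 nM 75-bp dsDNA, 50 μM ATP and 50 μM GTP in Tris pH 7.5/MgCl2 buffer with compound dilutions. cGAMP was quantified by RapidFire mass spectrometry against an internal standard, and IC50 was obtained by 4-parameter logistic fit.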

A value given as a limit tells only on which side of the number the result lay.

T1 sequence (Q8N884 whole entry): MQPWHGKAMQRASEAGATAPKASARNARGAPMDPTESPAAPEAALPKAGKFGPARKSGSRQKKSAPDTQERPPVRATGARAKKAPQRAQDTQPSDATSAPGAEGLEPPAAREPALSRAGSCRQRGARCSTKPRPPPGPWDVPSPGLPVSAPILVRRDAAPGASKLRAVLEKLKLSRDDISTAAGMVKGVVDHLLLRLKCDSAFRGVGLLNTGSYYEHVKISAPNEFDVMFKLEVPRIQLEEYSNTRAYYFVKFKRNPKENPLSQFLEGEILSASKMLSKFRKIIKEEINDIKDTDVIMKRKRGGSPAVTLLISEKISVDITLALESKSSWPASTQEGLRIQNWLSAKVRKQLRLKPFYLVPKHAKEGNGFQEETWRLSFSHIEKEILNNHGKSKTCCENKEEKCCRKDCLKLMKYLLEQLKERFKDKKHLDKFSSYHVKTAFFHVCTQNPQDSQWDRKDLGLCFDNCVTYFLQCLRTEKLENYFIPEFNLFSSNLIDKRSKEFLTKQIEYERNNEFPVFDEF

Turning to `CC1C(=O)NCCc2[nH]c3c(Cl)c(Cl)c(F)c(NCCO)c3c21` (racemic) [Example 52, 7,8-Dichloro-9-fluoro-10-((2-hydroxyethyl)amino)-1-methyl-3,4,5,6-tetrahydroazepino[4,5-b]indol-2(1H)-one], the IC50 on cGAS [1] was 2220 nM; at cGAS [2], 29.1 nM.
As for `C[C@H]1C(=O)NCC(C)(C)c2[nH]c3c(Cl)c(Cl)cc(NC(=O)CO)c3c21` (single isomer, unassigned) [Example 133], the IC50 on cGAS [1] was 820 nM; at cGAS [2], 20 nM.
For `CC1C(=O)NCCc2[nH]c3c(Cl)c(Cl)cc(CC#N)c3c21` (stereo not shown) [Example 31, 2-(7,8-Dichloro-1-methyl-2-oxo-1,2,3,4,5,6-hexahydroazepino[4,5-b]indol-10-yl)acetonitrile] the same measures were 1120 nM and 39.5 nM.
Regarding `N#CCc1cc(Cl)c(Cl)c2[nH]c3c(c12)CC(=O)NCC3` [Example 28, 2-(7,8-Dichloro-2-oxo-1,2,3,4,5,6-hexahydroazepino[4,5-b]indol-10-yl)acetonitrile], the values for the IC50 at cGAS [1] and on cGAS [2] were 914 nM and 58.1 nM, respectively.
Consider `C[C@@H]1CNC(=O)Cc2c1[nH]c1c(Cl)c(Cl)cc(-c3cnn(C)n3)c21` (single isomer, unassigned) [Example 147], for which the values for the IC50 against cGAS [1] and on cGAS [2] were 5170 nM and 237 nM, respectively.
For `C[C@H]1C(=O)NCCc2[nH]c3c(Cl)c(Cl)cc(N[C@@H]4CCOC4)c3c21` (single isomer, unassigned) [Example 65] the same measures were not below 10000 nM and 890 nM.
For `C[C@H]1C(=O)NCC(C)(C)c2[nH]c3c(Cl)c(Cl)cc(NC(=O)CO)c3c21` (single isomer, unassigned) [Example 132] the same measures were more than 10000 nM and not below 39800 nM.
Consider `C[C@@H]1CNC(=O)Cc2c1[nH]c1c(Cl)c(Cl)cc(OCC#N)c21` (single isomer, unassigned) [Example 148], for which the IC50 against cGAS [1] stood at 1390 nM; at cGAS [2], 41.4 nM.
For the compound `C[C@@H]1C(=O)NCCc2[nH]c3c(Cl)c(Cl)cc(NC(=O)CO)c3c21` (single isomer, unassigned) [Example 12B], the 50% inhibitory concentration (IC50) against cGAS [1] stood at 1700 nM; on cGAS [2], 748 nM.
For `C[C@@H]1CNC(=O)[C@@H](C)c2c1[nH]c1c(Cl)c(Cl)cc(NCCO)c21` (single isomer, unassigned) [Example 154] the same measures were 394 nM and 12.4 nM.
In the case of `CC(C)(O)C[C@@H]1CNC(=O)Cc2c1[nH]c1c(Cl)c(Cl)cc(CC#N)c21` (single isomer, unassigned) [Example 107], the results for the IC50 against cGAS [1] and at cGAS [2] were 649 nM and 12.5 nM, respectively.
`Cc1noc(-c2cc(Cl)c(Cl)c3[nH]c4c(c23)CC(=O)NCC4)n1` [Example 25, 7,8-Dichloro-10-(3-methyl-1,2,4-oxadiazol-5-yl)-3,4,5,6-tetrahydroazepino[4,5-b]indol-2(1H)-one]: the IC50 against cGAS [1] is more than 10000 nM; at cGAS [2], 27.1 nM.
For `C[C@@H]1CNC(=O)[C@@H](C)c2c1[nH]c1c(Cl)c(Cl)cc(CC#N)c21` (single isomer, unassigned) [Example 150], the IC50 amounted to 2120 nM at cGAS [1] and 25.9 nM at cGAS [2].
As for `COCC[C@H]1CNC(=O)[C@H](C)c2c1[nH]c1c(Cl)c(Cl)cc(NCCO)c21` (single isomer, unassigned) [Example 172], the figures for the IC50 against cGAS [1] and at cGAS [2] were more than 10000 nM and 1810 nM, respectively.
As for `COCCOc1cc(Cl)c(Cl)c2[nH]c3c(c12)[C@H](C)C(=O)NCC3` (single isomer, unassigned) [Example 80], the figures for the IC50 at cGAS [1] and on cGAS [2] were 280 nM and 8.12 nM, respectively.
On to `C[C@@H]1CNC(=O)[C@@H](C)c2c1[nH]c1c(Cl)c(Cl)cc(CC#N)c21` (single isomer, unassigned) [Example 153], for which the figures for the IC50 at cGAS [1] and on cGAS [2] were more than 10000 nM and 2420 nM, respectively.
As for `COCCOc1cc(Cl)c(Cl)c2[nH]c3c(c12)[C@H](C)C(=O)NCC3(C)C` (single isomer, unassigned) [Example 184, (S)-7,8-Dichloro-10-(2-methoxyethoxy)-1,5,5-trimethyl-3,4,5,6-tetrahydroazepino[4,5-b]indol-2(1H)-one or (R)-7,8-dichloro-10-(2-methoxyethoxy)-1,5,5-trimethyl-3,4,5,6-tetrahydroazepino[4,5-b]indol-2(1H)-one], the IC50 against cGAS [1] stood at 1370 nM; on cGAS [2], 17.4 nM.
`Cn1ncc(-c2cc(Cl)c(Cl)c3[nH]c4c(c23)CC(=O)NC[C@H]4CC(C)(C)O)n1` (single isomer, unassigned) [Example 103]: the IC50 against cGAS [1] was found to be 398 nM; on cGAS [2], 17.6 nM.
For `C[C@H]1C(=O)NCCc2[nH]c3c(Cl)c(Cl)cc(CC#N)c3c21` (single isomer, unassigned) [Example 90] the same measures were 993 nM and 552 nM.
Take `CCCNc1cc(Cl)c(Cl)c2[nH]c3c(c12)C(C)C(=O)NCC3` (stereo not shown) [Example 45, 7,8-Dichloro-1-methyl-10-(propylamino)-3,4,5,6-tetrahydroazepino[4,5-b]indol-2(1H)-one]: the figures for the IC50 on cGAS [1] and on cGAS [2] were 2230 nM and 46.6 nM, respectively.
